Measured values published in US20250171432A1, “COMPOUNDS AND METHODS OF USE” (Tango Therapeutics, Inc., priority 2022, published 2025).

Experiments:
Format in all cases: cell-based
[1] = system: SDMA (PRMT5 activity) in HAP1 MTAP-intact cell line; experiment: SDMA in-cell western assay, HAP1 MTAP-intact; conditions: Homo sapiens, SDMA in-cell western, HAP1 MTAP-intact cells, 24 hours compound incubation
[2] = system: SDMA (PRMT5 activity) in HAP1 MTAP-deleted cell line; experiment: SDMA in-cell western assay, HAP1 MTAP-deleted; conditions: for IC50 / IC90: Homo sapiens, SDMA in-cell western, HAP1 MTAP-deleted cells, 24 hours compound incubation; for Hap1 MTAP intact/deleted ratio: ratio of SDMA IC50 in HAP1 MTAP-intact to HAP1 MTAP-deleted cell line
[3] = system: HAP1 MTAP-deleted cell line; experiment: Viability assay (CellTiter-Glo), HAP1 MTAP-deleted; conditions: Homo sapiens, 168 h, HAP1 MTAP-deleted cells, 7 days
Outline: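 HAP1 MTAP-deleted and MTAP-intact cells seeded, then dosed next day (n=3, 0.2% DMSO) and grown 7 days. Viability by CellTiter-Glo luminescence, expressed as % of DMSO control per cell line.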

IC50 ([1]; HAP1, 24 h) [nM] | IC50 [2] [nM] | IC90 [2] [nM] | SMILES | Hap1 MTAP intact/deleted ratio [2] | IC50 [3] [nM] | IC50 [1] [nM]
> 50 | < 5 | < 75 | COc1ncc(NC(=O)C(=O)N2C[C@@H](C)CC[C@@H]2c2ccc3sc([C@@H](C)CN4CCCC4)nc3c2)cc1C(N)=O [Compound 62, 2-methoxy-5-[[2-oxo-2-[(2R,5S)-5-methyl-2-[2-[(1S)-1-methyl-2-pyrrolidin-1-yl-ethyl]-1,3-benzothiazol-5-yl]-1-piperidyl]acetyl]amino]pyridine-3-carboxamide] | A (“A” indicates an IC50 ratio greater than or equal to 30 fold) | < 100 | –
> 50 | < 5 | < 75 | CCc1cc(NC(=O)C(=O)N2C[C@@H](C)CC[C@@H]2c2ccc3cc(C#N)c(C4CCN(C)CC4)nc3c2)cnc1N [Compound 63, N-(6-amino-5-ethylpyridin-3-yl)-2-((2R,5S)-2-(3-cyano-2-(1-methylpiperidin-4-yl)quinolin-7-yl)-5-methylpiperidin-1-yl)-2-oxoacetamide] | A (“A” indicates an IC50 ratio greater than or equal to 30 fold) | < 100 | –
> 50 | < 5 | < 75 | COc1ncc(NC(=O)C(=O)N2C[C@@H](C)CC[C@@H]2c2ccc3sc([C@H]4CN(C)C(C)(C)C4)nc3c2)cc1C(N)=O [Compound 65, 2-methoxy-5-[[2-oxo-2-[(2R,5S)-5-methyl-2-[2-[(3R)-1,5,5-trimethylpyrrolidin-3-yl]-1,3-benzothiazol-5-yl]-1-piperidyl]acetyl]amino]pyridine-3-carboxamide] | B (“B” indicates an IC50 ratio greater than or equal to 15 fold but lower than 30 fold) | < 100 | –
> 50 | < 5 | < 75 | CCc1cc(NC(=O)C(=O)N2C[C@@H](C)CC[C@@H]2c2cccc(OC[C@H](C)N(C)C)c2)cnc1N [Compound 66, N-(6-amino-5-ethylpyridin-3-yl)-2-((2R,5S)-2-(3-((S)-2-(dimethylamino)propoxy)phenyl)-5-methylpiperidin-1-yl)-2-oxoacetamide] | A (“A” indicates an IC50 ratio greater than or equal to 30 fold) | < 100 | –
> 50 | < 5 | < 75 | COc1ncc(NC(=O)C(=O)N2C[C@@H](C)CC[C@@H]2c2ccc3sc([C@]45CCC(C4)N(C)C5)nc3c2)cc1C(N)=O [Compound 71, 2-methoxy-5-(2-((2R,5S)-5-methyl-2-(2-((4R)-2-methyl-2-azabicyclo[2.2.1]heptan-4-yl)benzo[d]thiazol-5-yl)piperidin-1-yl)-2-oxoacetamido)nicotinamide] | B (“B” indicates an IC50 ratio greater than or equal to 15 fold but lower than 30 fold) | < 100 | –
> 50 | 5 to 50 | > 125 | CCc1cc(NC(=O)C(=O)N2C[C@@H](C)CC[C@@H]2c2ccc3nn(CCN(C)C)cc3c2)cnc1N [Compound 72] | A (“A” indicates an IC50 ratio greater than or equal to 30 fold) | < 100 | –
> 50 | 5 to 50 | 75 to 125 | CCc1cc(NC(=O)C(=O)N2CCCC[C@@H]2c2ccc3sc(C4CCN(C)CC4)nc3c2)cnc1N [Compound 73, N-(6-amino-5-ethylpyridin-3-yl)-2-(2-(2-(1-methylpiperidin-4-yl)benzo[d]thiazol-5-yl)piperidin-1-yl)-2-oxoacetamide] | A (“A” indicates an IC50 ratio greater than or equal to 30 fold) | 100 to 1000 | –
> 50 | 5 to 50 | > 125 | CCc1cc(NC(=O)C(=O)N2C[C@@H](C)CC[C@@H]2c2ccc3cccnc3c2)cnc1N [Compound 76, N-(6-amino-5-ethylpyridin-3-yl)-2-((2R,5S)-5-methyl-2-(quinolin-7-yl)piperidin-1-yl)-2-oxoacetamide] | A (“A” indicates an IC50 ratio greater than or equal to 30 fold) | 100 to 1000 | –
5 to 50 | < 5 | < 75 | CCc1cc(NC(=O)C(=O)N2C[C@@H](C)CC[C@@H]2c2ccc3sc([C@@H]4CCN(C)CC4(C)C)nc3c2)cnc1N [Compound 79, N-(6-amino-5-ethylpyridin-3-yl)-2-((5S)-5-methyl-2-(2-(1,3,3-trimethylpiperidin-4-yl)benzo[d]thiazol-5-yl)piperidin-1-yl)-2-oxoacetamide] | C (“C” indicates an IC50 ratio of less than 15 fold) | < 100 | –
> 50 | < 5 | < 75 | COc1ncc(NC(=O)C(=O)N2C[C@@H](C)CC[C@@H]2c2ccc3sc(C45CCN(CC4)C5)nc3c2)cc1C(N)=O [Compound 81, 5-(2-((2R,5S)-2-(2-(1-azabicyclo[2.2.1]heptan-4-yl)benzo[d]thiazol-5-yl)-5-methylpiperidin-1-yl)-2-oxoacetamido)-2-methoxynicotinamide] | A (“A” indicates an IC50 ratio greater than or equal to 30 fold) | < 100 | –
> 50 | < 5 | < 75 | COc1ncc(NC(=O)C(=O)N2C[C@@H](C)CC[C@@H]2c2ccc3sc(C4=CCN(C)CC4)nc3c2)cc1C(N)=O [Compound 83, 2-methoxy-5-(2-((2R,5S)-5-methyl-2-(2-(1-methyl-1,2,3,6-tetrahydropyridin-4-yl)benzo[d]thiazol-5-yl)piperidin-1-yl)-2-oxoacetamido)nicotinamide] | A (“A” indicates an IC50 ratio greater than or equal to 30 fold) | < 100 | –
> 50 | 5 to 50 | > 125 | COc1ncc(NC(=O)C(=O)N2C[C@@H](C)CC[C@@H]2c2ccc3sc(C45CC(N(C)C)(C4)C5)nc3c2)cc1C(N)=O [Compound 86] | A (“A” indicates an IC50 ratio greater than or equal to 30 fold) | < 100 | –
> 50 | < 5 | < 75 | COc1ncc(NC(=O)C(=O)N2C[C@@H](C)CC[C@@H]2c2ccc3ccc(C4CCN(C)CC4)nc3c2)cc1C(N)=O [Compound 88, 2-methoxy-5-(2-((2R,5S)-5-methyl-2-(2-(1-methylpiperidin-4-yl)quinolin-7-yl)piperidin-1-yl)-2-oxoacetamido)nicotinamide] | A (“A” indicates an IC50 ratio greater than or equal to 30 fold) | < 100 | –
> 50 | < 5 | < 75 | CCc1cc(NC(=O)C(=O)N2C[C@@H](C)CC[C@@H]2c2ccc3sc(CC(C)(C)N(C)C)nc3c2)cnc1N [Compound 89, N-(6-amino-5-ethylpyridin-3-yl)-2-((2R,5S)-2-(2-(2-(dimethylamino)-2-methylpropyl)benzo[d]thiazol-5-yl)-5-methylpiperidin-1-yl)-2-oxoacetamide] | A (“A” indicates an IC50 ratio greater than or equal to 30 fold) | < 100 | –
5 to 50 | < 5 | < 75 | CCc1cc(NC(=O)C(=O)N2C[C@@H](C)CC[C@@H]2c2ccc3cc(C4CCN(C)CC4)cnc3c2)cnc1N [Compound 95, N-(6-amino-5-ethylpyridin-3-yl)-2-((2R,5S)-5-methyl-2-(3-(1-methylpiperidin-4-yl)quinolin-7-yl)piperidin-1-yl)-2-oxoacetamide] | B (“B” indicates an IC50 ratio greater than or equal to 15 fold but lower than 30 fold) | < 100 | –

SMILES | IC50 ([1]; HAP1, 24 h) [nM] | IC50 [2] [nM] | IC90 [2] [nM] | Hap1 MTAP intact/deleted ratio [2] | IC50 [3] [nM] | IC50 [1] [nM]
CCc1cc(NC(=O)C(=O)N2C[C@@H](C)CC[C@@H]2c2ccc3sc(C4=C(C)CN(C)CC4)nc3c2)cnc1N [Compound 84, N-(6-amino-5-ethylpyridin-3-yl)-2-((2R,5S)-2-(2-(1,5-dimethyl-1,2,3,6-tetrahydropyridin-4-yl)benzo[d]thiazol-5-yl)-5-methylpiperidin-1-yl)-2-oxoacetamide] | – | < 5 | < 75 | B (“B” indicates an IC50 ratio greater than or equal to 15 fold but lower than 30 fold) | < 100 | > 50
CCc1cc(NC(=O)C(=O)N2C[C@@H](C)CC[C@@H]2c2ccc3sc([C@@H]4C[C@@H]5CC(F)(F)C[C@H](C4)N5C)nc3c2)cnc1N [Compound 91, N-(6-amino-5-ethylpyridin-3-yl)-2-((2R,5S)-2-(2-(7,7-difluoro-9-methyl-9-azabicyclo[3.3.1]nonan-3-yl)benzo[d]thiazol-5-yl)-5-methylpiperidin-1-yl)-2-oxoacetamide] | – | < 5 | < 75 | A (“A” indicates an IC50 ratio greater than or equal to 30 fold) | < 100 | > 50
CCc1cc(NC(=O)C(=O)N2C[C@@H](C)CC[C@@H]2c2ccc3c(c2)OC2(CCN(C)CC2)O3)cnc1N [Compound 92, N-(6-amino-5-ethylpyridin-3-yl)-2-((2R,5S)-5-methyl-2-(1′-methylspiro[benzo[d][1,3]dioxole-2,4′-piperidin]-5-yl)piperidin-1-yl)-2-oxoacetamide] | – | 5 to 50 | 75 to 125 | A (“A” indicates an IC50 ratio greater than or equal to 30 fold) | < 100 | > 50
